Measured values from patent US11528909B2, “Method of controlling nematodes in agricultural crops” (priority 2020, dated 2022).

Columns and labels:
[1] = system: soybean cyst nematode J2s; experiment: Soybean cyst nematode J2 treatment in Petri dish (cuticle covering, molting, death); format: in vivo; conditions: for MEAN SCN Covered Cuticle / MEAN SCN Dead J2s: ten freshly hatched J2s per dish, three replicates
Description: Different developmental stages of soybean cyst nematode were targeted for treatment in soil. Soybean cyst nematode has an egg stage, four juvenile stages (samples J1 to J4), adult male and female stages. From J1 to adult development, during each development stage, the nematode undergoes a molt, that is, a shedding of the outside cuticle and forming a new cuticle.
Ten freshly hatched J2s were removed from pure culture and added to three different concentrations (0.5 weight %, […], and 0.12 weight % of Composition solution in a […] Petri dish containing DI water. Composition is (CH3O)3Si(CH2)3N^+ C18H37(CH3)2 Cl^−.
Observations were made over time under an inverted microscope and compound microscope and for both soybean cyst nematode in Composition and also in just DI water which were replicated three times.

[2] = system: soybean cyst nematode J2s; experiment: as above; format: in vivo; conditions: 0.25% Composition in DI water; ten freshly hatched J2s per dish, three replicates

## CCCCCCCCCCCCCCCCCC[N+](C)(C)CCC[Si](OC)(OC)OC.[Cl-] [Composition, 3-(trimethoxysilyl)-propyldimethyloctadecyl ammonium chloride]
[1]; 0.12% Composition in DI water
  MEAN SCN Covered Cuticle: 5.3
  MEAN SCN Dead J2s: 6.66
[1]; 0.5% Composition in DI water
  MEAN SCN Covered Cuticle: 5.16
  MEAN SCN Dead J2s: 8.00
[1]; all concentrations, after one day
  Microscopic observation of J2s after one day: accumulates on the cuticle of J2s
[1]; all concentrations, second day
  Microscopic observation of J2s on the second day: J2s shed the cuticle
[1]; all tested concentrations
  Statistical effect on soybean cyst nematode J2s (covered cuticles and dead nematodes versus treatment): significantly affects the soybean cyst nematode J2s
[1]; in vitro
  Overall effect on the nematode in vitro: cuticle disruption and therefore accelerated molting of the nematode in vitro and ultimate death of the nematodes
[2]
  MEAN SCN Covered Cuticle: 5.16
  MEAN SCN Dead J2s: 7.66
